# Test results taken from patent EP2970215B1, “PYRROLIDINE DERIVATIVES, PHARMACEUTICAL COMPOSITIONS CONTAINING THEM, AND THEIR USE IN THERAPY” (AbbVie Deutschland GmbH & Co. KG, priority 2013, dated 2014).
# pKi: −log10 of the molar value.
# Target: T1, human GlyT1c transporter (Homo sapiens, UniProt P48067)
# T1 construct: expressed in transfected cells; host or cells: CHO cells (recombinant; line hGlyT1c_5_CHO is named for the uptake assay)
# T1 sequence (P48067 1-706): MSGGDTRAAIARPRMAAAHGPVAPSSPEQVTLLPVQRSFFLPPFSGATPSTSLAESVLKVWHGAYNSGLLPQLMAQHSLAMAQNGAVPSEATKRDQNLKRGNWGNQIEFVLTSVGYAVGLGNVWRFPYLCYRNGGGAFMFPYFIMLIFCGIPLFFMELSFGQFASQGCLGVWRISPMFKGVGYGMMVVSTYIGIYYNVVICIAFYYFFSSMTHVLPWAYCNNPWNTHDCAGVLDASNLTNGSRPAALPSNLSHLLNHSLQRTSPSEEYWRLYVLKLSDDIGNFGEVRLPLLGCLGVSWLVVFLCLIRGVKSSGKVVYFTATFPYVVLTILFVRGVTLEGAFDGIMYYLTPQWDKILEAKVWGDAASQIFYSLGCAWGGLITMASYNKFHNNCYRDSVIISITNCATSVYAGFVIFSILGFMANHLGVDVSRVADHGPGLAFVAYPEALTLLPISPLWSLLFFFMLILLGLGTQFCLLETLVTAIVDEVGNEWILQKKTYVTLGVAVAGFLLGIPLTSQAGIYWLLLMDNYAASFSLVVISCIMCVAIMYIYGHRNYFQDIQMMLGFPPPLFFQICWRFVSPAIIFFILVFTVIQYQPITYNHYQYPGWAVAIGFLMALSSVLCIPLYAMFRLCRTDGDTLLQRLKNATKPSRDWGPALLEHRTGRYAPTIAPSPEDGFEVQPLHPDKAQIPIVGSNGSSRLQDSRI
# Test: Radioligand binding assay using recombinant CHO cell membranes expressing human GlyT1
# Details: radioligand binding to human GlyT1c transporter-expressing membranes
# Description: 2. Radioligand binding assays using recombinant CHO cell membranes expressing human GlyT1: […]
row,pKi,SMILES
1,≥ 5.00,"Cn1cnc(S(=O)(=O)N2C[C@@H](Nc3cccc(Cl)c3)[C@H](OCc3ccccc3)C2)c1 (relative stereo) [Example 400, Trans-4-(benzyloxy)-N-(3-chlorophenyl)-1-[(1-methyl-1H-imidazol-4-yl)sulfonyl]pyrrolidin-3-amine]"
2,≥ 5.00,"C=CCO[C@@H]1CN(S(=O)(=O)c2cn(C)cn2)C[C@H]1Nc1cccc(Cl)c1 (relative stereo) [Example 402, Trans-N-(3-chlorophenyl)-1-[(1-methyl-1H-imidazol-4-yl)sulfonyl]-4-(prop-2-en-1-yloxy)pyrrolidin-3-amine]"
3,≥ 7.00,"C=C(C)CO[C@@H]1CN(S(=O)(=O)c2cn(C)cn2)C[C@H]1Nc1cccc(Cl)c1 (relative stereo) [Example 403, Trans-N-(3-chlorophenyl)-1-[(1-methyl-1H-imidazol-4-yl)sulfonyl]-4-[(2-methylprop-2-en-1-yl)oxy]pyrrolidin-3-amine]"
4,≥ 5.00,"Cn1cnc(S(=O)(=O)N2C[C@@H](N3Cc4cc(C(F)(F)F)ccc4NC3=O)[C@H](c3ccccc3)C2)c1 (relative stereo) [Example 404, 3-{Trans-1-[(1-methyl-1H-imidazol-4-yl)sulfonyl]-4-phenylpyrrolidin-3-yl}-6-(trifluoromethyl)-3,4-dihydroquinazolin-2(1H)-one]"
5,≥ 6.00,"CC(C)CO[C@@H]1CN(S(=O)(=O)c2cn(C)cn2)C[C@H]1Nc1cccc(Cl)c1 (relative stereo) [Example 412, Trans-N-(3-chlorophenyl)-1-[(1-methyl-1H-imidazol-4-yl)sulfonyl]-4-(2-methylpropoxy)pyrrolidin-3-amine]"
6,≥ 8.00,"Cn1cnc(S(=O)(=O)N2C[C@@H](Nc3cccc(OC(F)(F)F)c3)[C@H](C3CCCCC3)C2)c1 (relative stereo) [Example 425, Trans-4-cyclohexyl-1-[(1-methyl-1H-imidazol-4-yl)sulfonyl]-N-[3-(trifluoromethoxy)phenyl]pyrrolidin-3-amine]"
7,≥ 5.00,"CC(C)(C)OC(=O)N[C@@H]1CN(S(=O)(=O)c2ccccc2C#N)C[C@H]1c1ccccc1 (relative stereo) [Example 523, tert-butyl {trans-1-[(2-cyanophenyl)sulfonyl]-4-phenylpyrrolidin-3-yl}carbamate]"
8,≥ 5.00,"CC(C)(C)OC(=O)N[C@@H]1CN(S(=O)(=O)c2ccccc2C#N)C[C@H]1c1ccc(F)cc1 (relative stereo) [Example 524, tert-butyl [trans-1-[(2-cyanophenyl)sulfonyl]-4-(4-fluorophenyl)pyrrolidin-3-yl]carbamate]"
9,≥ 5.00,"N#Cc1ccccc1S(=O)(=O)N1C[C@@H](Nc2cc(C(F)(F)F)ccn2)[C@H](c2ccccc2)C1 (relative stereo) [Example 525, 2-{[trans-3-phenyl-4-{[4-(trifluoromethyl)pyridin-2-yl]amino}pyrrolidin-1-yl]sulfonyl}benzonitrile]"
10,≥ 5.00,"NC(=O)c1ccccc1S(=O)(=O)N1C[C@@H](Nc2cc(C(F)(F)F)ccn2)[C@H](c2ccccc2)C1 (relative stereo) [Example 526, 2-{[trans-3-phenyl-4-{[4-(trifluoromethyl)pyridin-2-yl]amino}pyrrolidin-1-yl]sulfonyl}benzamide]"
11,≥ 5.00,"N#Cc1ccccc1S(=O)(=O)N1C[C@@H](N)[C@H](c2ccccc2)C1 (relative stereo) [Example 527, 2-(Trans-3-amino-4-phenylpyrrolidin-1-ylsulfonyl)benzonitrile]"
12,< 5.00,"N#Cc1ccccc1S(=O)(=O)N1C[C@@H](Nc2cccc(Cl)c2)[C@H](c2ccccc2)C1 (relative stereo) [Example 528, 2-({Trans-3-[(3-chlorophenyl)amino]-4-phenylpyrrolidin-1-yl}sulfonyl)benzonitrile]"
13,≥ 5.00,"N#Cc1ccccc1S(=O)(=O)N1C[C@@H](Nc2ccc(F)cc2)[C@H](c2ccccc2)C1 (relative stereo) [Example 529, 2-({Trans-3-[(4-fluorophenyl)amino]-4-phenylpyrrolidin-1-yl}sulfonyl)benzonitrile]"
14,≥ 6.00,"Cn1cnc(S(=O)(=O)N2C[C@@H](Nc3cccc(Cl)c3)[C@H](OCC3CC3)C2)c1 (relative stereo) [Example 530, Trans-N-(3-chlorophenyl)-4-(cyclopropylmethoxy)-1-[(1-methyl-1H-imidazol-4-yl)sulfonyl]pyrrolidin-3-amine]"
15,≥ 7.00,"Cn1cnc(S(=O)(=O)N2C[C@@H](Nc3cc(C(F)(F)F)ncn3)[C@H](C3CCCCC3)C2)c1 (relative stereo) [Example 531, N-{trans-4-cyclohexyl-1-[(1-methyl-1H-imidazol-4-yl)sulfonyl]pyrrolidin-3-yl}-6-(trifluoromethyl)pyrimidin-4-amine]"
16,≥ 5.00,"CC(C)OCCCNC[C@@H]1CN(S(=O)(=O)c2cn(C)cn2)C[C@H]1c1ccc(F)cc1 (relative stereo) [Example 591, N-({trans-4-(4-fluorophenyl)-1-[(1-methyl-1H-imidazol-4-yl)sulfonyl]pyrrolidin-3-yl}methyl)-3-(propan-2-yloxy)propan-1-amine]"

# Second part, the compound before the results:
row,SMILES,pKi
1,"Cn1cnc(S(=O)(=O)N2C[C@@H](C(=O)Nc3ccc(Cl)c(OC(F)(F)F)c3)[C@H](c3ccc(F)cc3)C2)c1 (relative stereo) [Example 371, Trans-N-[4-chloro-3-(trifluoromethoxy)phenyl]-4-(4-fluorophenyl)-1-[(1-methyl-1H-imidazol-4-yl)sulfonyl]pyrrolidine-3-carboxamide]",≥ 6.00
2,"CC(=O)Nc1ccc(Cl)cc1N[C@@H]1CN(S(=O)(=O)c2cn(C)cn2)C[C@H]1c1ccc(F)cc1 (relative stereo) [Example 372, N-[4-chloro-2-({Trans-4-(4-fluorophenyl)-1-[(1-methyl-1H-imidazol-4-yl)sulfonyl]pyrrolidin-3-yl}amino)phenyl]acetamide]",≥ 5.00
3,"Cn1cnc(S(=O)(=O)N2C[C@@H](O)[C@H](Nc3cccc(Cl)c3)C2)c1 (relative stereo) [Example 373, Trans-4-[(3-chlorophenyl)amino]-1-[(1-methyl-1H-imidazol-4-yl)sulfonyl]pyrrolidin-3-ol]",≥ 5.00
4,"Cn1cnc(S(=O)(=O)N2C[C@@H](NC(=O)C3(C(F)(F)F)CC3)[C@H](c3ccccn3)C2)c1 (relative stereo) [Example 374, N-[Trans-1-[(1-methyl-1H-imidazol-4-yl)sulfonyl]-4-(pyridin-2-yl)pyrrolidin-3-yl]-1-(trifluoromethyl)cyclopropanecarboxamide]",≤ 5.00
5,"Cn1cnc(S(=O)(=O)N2C[C@@H](CNc3ccc(F)c(OC(F)(F)F)c3)[C@H](c3ccc(F)cc3)C2)c1 (relative stereo) [Example 376, 4-fluoro-N-({trans-4-(4-fluorophenyl)-1-[(1-methyl-1H-imidazol-4-yl)sulfonyl]pyrrolidin-3-yl}methyl)-3-(trifluoromethoxy)aniline]",≥ 6.00
6,"Cn1cnc(S(=O)(=O)N2C[C@@H](CNc3ccc(Cl)c(OC(F)(F)F)c3)[C@H](c3ccc(F)cc3)C2)c1 (relative stereo) [Example 377, 4-chloro-N-({trans-4-(4-fluorophenyl)-1-[(1-methyl-1H-imidazol-4-yl)sulfonyl]pyrrolidin-3-yl}methyl)-3-(trifluoromethoxy)aniline]",≥ 6.00
7,"Cn1cnc(S(=O)(=O)N2C[C@@H](Nc3cccc(Cl)c3)[C@H](Oc3ccc(F)cc3)C2)c1 (relative stereo) [Example 378, Trans-N-(3-chlorophenyl)-4-(4-fluorophenoxy)-1-[(1-methyl-1H-imidazol-4-yl)sulfonyl]pyrrolidin-3-amine]",≥ 5.00
8,"Cn1cnc(S(=O)(=O)N2C[C@@H](Oc3cc(C(F)(F)F)ccn3)[C@H](c3ccc(F)cc3)C2)c1 (relative stereo) [Example 379, 2-({trans-4-(4-fluorophenyl)-1-[(1-methyl-1H-imidazol-4-yl)sulfonyl]pyrrolidin-3-yl}oxy)-4-(trifluoromethyl)pyridine]",≥ 7.00
9,"Cn1cnc(S(=O)(=O)N2C[C@@H](N3Cc4ccc(Cl)cc4C3=O)[C@H](c3ccccn3)C2)c1 (relative stereo) [Example 381, 6-chloro-2-[Trans-1-[(1-methyl-1H-imidazol-4-yl)sulfonyl]-4-(pyridin-2-yl)pyrrolidin-3-yl]-2,3-dihydro-1H-isoindol-1-one]",≥ 5.00
10,"Cn1cnc(S(=O)(=O)N2C[C@@H](Nc3cc(C(F)(F)F)cnn3)[C@H](c3ccc(F)cc3)C2)c1 (relative stereo) [Example 383, N-{trans-4-(4-fluorophenyl)-1-[(1-methyl-1H-imidazol-4-yl)sulfonyl]pyrrolidin-3-yl} -5 - (trifluoromethyl)pyridazin-3-amine]",≥ 6.00
11,"Cn1cnc(S(=O)(=O)N2C[C@@H](S(=O)(=O)c3ccccc3)[C@H](c3ccccc3)C2)c1 (relative stereo) [Example 385, 1-methyl-4-{[trans-3-phenyl-4-(phenylsulfonyl)pyrrolidin-1-yl]sulfonyl}-1H-imidazole]",≥ 5.00
